Source: ChEMBL document CHEMBL5055639, “ω-Functionalized Lipid Prodrugs of HIV NtRTI Tenofovir with Enhanced Pharmacokinetic Properties” (J Med Chem, 2021)

Key:
[1] = Therapeutic index, ratio of CC50 for cytotoxicity against HEK293T cells to IC50 for antiviral activity against human immunodeficiency virus expressed in HEK293T cells; format: toxicity, cell-based; conditions: read-out: Ratio CC50/IC50
Cytochrome P450 2D6 = Cytochrome P450 2D6 (Homo sapiens, UniProt P10635); assay: Inhibition of human recombinant CYP2D6 expressed in insect microsome using (3-[2-([…]-N-methylammonium)-ethyl]-7-methoxy-4-methylcoumarin iodide as a substrate incubated for 30 mins followed by addition of NADPH regenerating system measured immediately by fluorescence based analysis; format: ADME, microsomes
Cytochrome P450 3A4 = Cytochrome P450 3A4 (Homo sapiens, UniProt P08684); assay: Inhibition of human recombinant CYP3A4 expressed in insect microsome using 7-benzyloxy-4-trifluoromethylcoumarin as a substrate incubated for 30 mins followed by addition of NADPH regenerating system measured immediately by fluorescence based analysis; format: ADME, microsomes
HEK-293T [2] = assay: Cytotoxicity against HEK293T cells assessed as reduction in cell viability measured after 48 hrs by CellTiter 96 Aqueous One Solution reagent based cell proliferation assay; conditions: human
[3] = tested on: Human immunodeficiency virus; assay: Antiviral activity against human immunodeficiency virus expressed in HEK293T cells coexpressing firefly luciferase gene incubated for 48 hrs by Bright-Glo luciferase assay; format: functional, organism-based; conditions: Human immunodeficiency virus 1, HEK-293T
[4] = Metabolic stability in human liver microsomes assessed as half life at 3 uM measured up to 30 min in presence of NADPH by LC-MS/MS analysis; format: ADME, Microsome; conditions: 0.5 h
[5] = Prodrug conversion in C57BL/6 mouse liver assessed as AUC(0 to 24 hrs) of TFV metabolite at 10 mg/kg, po measured up to 24 hrs by LC-MS/MS analysis; format: ADME, organism-based; set-up: time < 24 hrs, dose 10 mg/kg, route po; conditions: in vivo
[6] = AUC(0 to 24 hrs) in C57BL/6 mouse plasma at 10 mg/kg, po measured up to 24 hrs by LC-MS/MS analysis; format: ADME, organism-based; set-up: time < 24 hrs, dose 10 mg/kg, route po; conditions: in vivo
[7] = Half life in C57BL/6 mouse plasma at 10 mg/kg, po measured up to 24 hrs by LC-MS/MS analysis; format: ADME, organism-based; conditions: in vivo
[8] = Plasma protein binding in C57BL/6 mouse at 10 mg/kg, po measured up to 24 hrs by LC-MS/MS; format: ADME, organism-based; conditions: read-out: PPB
[9] = Prodrug conversion in C57BL/6 mouse liver assessed as Tmax of TFV metabolite at 10 mg/kg, po measured up to 24 hrs by LC-MS/MS analysis; format: ADME, organism-based; conditions: in vivo
[10] = Prodrug conversion in C57BL/6 mouse plasma assessed as Cmax of TFV metabolite at 10 mg/kg, po measured up to 24 hrs by LC-MS/MS analysis; format: ADME, organism-based; set-up: time < 24 hrs, dose 10 mg/kg, route po; conditions: in vivo
[11] = Prodrug conversion in C57BL/6 mouse plasma assessed as AUC(0 to 24 hrs) of TFV metabolite at 10 mg/kg, po measured up to 24 hrs by LC-MS/MS analysis; format: ADME, organism-based; set-up: time < 24 hrs, dose 10 mg/kg, route po; conditions: in vivo
[12] = Cmax in C57BL/6 mouse liver at 10 mg/kg, po measured up to 24 hrs by LC-MS/MS analysis; format: ADME, organism-based; set-up: time < 24 hrs, dose 10 mg/kg, route po; conditions: in vivo
[13] = Cmax in C57BL/6 mouse plasma at 10 mg/kg, po measured up to 24 hrs by LC-MS/MS analysis; format: ADME, organism-based; set-up: dose 10 mg/kg, time < 24 hrs, route po; conditions: in vivo
[14] = Tmax in C57BL/6 mouse plasma at 10 mg/kg, po measured up to 24 hrs by LC-MS/MS analysis; format: ADME, organism-based; conditions: in vivo
[15] = Prodrug conversion in C57BL/6 mouse liver assessed as Cmax of TFV metabolite at 10 mg/kg, po measured up to 24 hrs by LC-MS/MS analysis; format: ADME, organism-based; set-up: dose 10 mg/kg, time < 24 hrs, route po; conditions: in vivo
[16] = Prodrug conversion in C57BL/6 mouse plasma assessed as Tmax of TFV metabolite at 10 mg/kg, po measured up to 24 hrs by LC-MS/MS analysis; format: ADME, organism-based; conditions: in vivo
[17] = Tmax in C57BL/6 mouse liver at 10 mg/kg, po measured up to 24 hrs by LC-MS/MS analysis; format: ADME, organism-based
[18] = AUC(0 to 24 hrs) in C57BL/6 mouse liver at 10 mg/kg, po measured up to 24 hrs by LC-MS/MS analysis; format: ADME, organism-based; set-up: time < 24 hrs, dose 10 mg/kg, route po; conditions: in vivo
[19] = Ratio of prodrug AUC(0 to 24 hrs) to TFV AUC(0 to 24 hrs) in C57BL/6 mouse liver at 10 mg/kg, po measured up to 24 hrs by LC-MS/MS analysis; format: ADME, organism-based; conditions: in vivo
[20] = Ratio of prodrug AUC(0 to 24 hrs) to TFV AUC(0 to 24 hrs) in C57BL/6 mouse plasma at 10 mg/kg, po measured up to 24 hrs by LC-MS/MS analysis; format: ADME, organism-based; conditions: in vivo
[21] = tested on: Human immunodeficiency virus; assay: Antiviral activity against human immunodeficiency virus expressed in HEK293T cells coexpressing firefly luciferase gene incubated for 48 hrs in absence of HSA by Bright-Glo luciferase assay; format: functional, organism-based; conditions: Human immunodeficiency virus 1, HEK-293T
HEK-293T [22] = assay: Cytotoxicity against HEK293T cells assessed as reduction in cell viability in absence of HSA measured after 48 hrs by CellTiter 96 Aqueous One Solution reagent based cell proliferation assay; conditions: human
[23] = Therapeutic index, ratio of CC50 for cytotoxicity against HEK293T cells in absence of HSA to IC50 for antiviral activity against human immunodeficiency virus expressed in HEK293T cells in absence of HSA; format: toxicity, cell-based; conditions: read-out: Ratio CC50/IC50
[24] = C57BL/6, mouse, liver, read-out: Tmax

Sequence of Cytochrome P450 2D6 (P10635 whole entry): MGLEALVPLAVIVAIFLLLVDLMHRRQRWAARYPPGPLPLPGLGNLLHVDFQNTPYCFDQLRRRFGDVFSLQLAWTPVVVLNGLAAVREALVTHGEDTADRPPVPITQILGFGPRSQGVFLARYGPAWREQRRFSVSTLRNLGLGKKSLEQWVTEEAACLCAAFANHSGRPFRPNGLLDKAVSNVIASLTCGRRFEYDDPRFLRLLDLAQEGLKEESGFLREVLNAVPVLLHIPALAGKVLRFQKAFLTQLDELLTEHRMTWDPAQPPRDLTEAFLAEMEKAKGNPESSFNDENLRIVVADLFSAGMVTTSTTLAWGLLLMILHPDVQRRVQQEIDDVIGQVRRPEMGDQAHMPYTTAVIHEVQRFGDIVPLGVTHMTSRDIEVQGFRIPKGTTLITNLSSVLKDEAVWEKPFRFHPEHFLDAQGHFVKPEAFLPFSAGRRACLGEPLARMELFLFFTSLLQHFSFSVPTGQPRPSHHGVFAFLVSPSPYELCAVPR
Sequence of Cytochrome P450 3A4 (P08684 whole entry): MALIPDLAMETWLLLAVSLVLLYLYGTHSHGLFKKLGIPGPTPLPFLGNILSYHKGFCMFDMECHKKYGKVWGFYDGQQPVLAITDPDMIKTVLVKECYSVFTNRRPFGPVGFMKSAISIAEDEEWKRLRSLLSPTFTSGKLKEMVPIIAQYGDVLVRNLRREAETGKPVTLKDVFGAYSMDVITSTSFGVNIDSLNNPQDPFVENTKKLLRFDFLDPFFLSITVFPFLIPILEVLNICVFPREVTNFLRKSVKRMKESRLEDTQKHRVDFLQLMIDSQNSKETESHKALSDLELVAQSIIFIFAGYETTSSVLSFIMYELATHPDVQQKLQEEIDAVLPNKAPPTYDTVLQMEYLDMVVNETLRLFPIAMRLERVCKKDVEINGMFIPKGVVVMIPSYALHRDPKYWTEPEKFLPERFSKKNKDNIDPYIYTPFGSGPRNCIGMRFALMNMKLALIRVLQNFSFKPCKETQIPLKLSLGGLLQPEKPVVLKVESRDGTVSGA

Compound: C#CCCCCCCCCCCCCCCOCCCOP(=O)(O)CO[C@H](C)Cn1cnc2c(N)ncnc21.N
- selectivity ratio [1]: > 758
- IC50 (Cytochrome P450 2D6): > 20 µM
- IC50 (Cytochrome P450 3A4): > 20 µM
- CC50 (HEK-293T [2]): > 100 µM
- IC50 [3]: 0.132 µM
- t1/2 [4]: > 2 h

Compound: C[C@H](Cn1cnc2c(N)ncnc21)OCP(=O)(O)OCCCOCCCCCCCCCCCCC#C[Si](C)(C)C.N
- AUC [5]: 11200 ng·h/mL
- AUC [6]: 550 ng·h/mL
- IC50 (Cytochrome P450 2D6): 21.7 µM
- IC50 (Cytochrome P450 3A4): > 20 µM
- t1/2 [7]: 2.49 h
- IC50 [3]: 0.069 µM
- fraction unbound at 24 h [8]: < 0.001
- Tmax [9]: 4 h
- Cmax [10]: 14.1 ng/mL
- t1/2 [4]: > 2 h
- AUC [11]: 142 ng·h/mL
- Cmax [12]: 8130 ng/mL
- Cmax [13]: 120 ng/mL
- Tmax [14]: 2 h
- Cmax [15]: 671 ng/mL
- Tmax [16]: 12 h
- Tmax [17, 24]: 4 h
- AUC [18]: 101000 ng·h/mL

Compound: C[C@H](Cn1cnc2c(N)ncnc21)OCP(=O)(O)OCCCOCCCCCCCCCCCCCC#CC(F)(F)F.N
- AUC [5]: 21900 ng·h/mL
- selectivity ratio [1]: > 4350
- AUC [6]: 643 ng·h/mL
- IC50 (Cytochrome P450 2D6): > 20 µM
- t1/2 [7]: 2.69 h
- CC50 (HEK-293T [2]): > 100 µM
- IC50 [3]: 0.023 µM
- fraction unbound at 24 h [8]: < 0.001
- Tmax [9]: 4 h
- Cmax [10]: 42.8 ng/mL
- t1/2 [4]: > 2 h
- AUC [11]: 425 ng·h/mL
- Cmax [12]: 558 ng/mL
- Cmax [13]: 153 ng/mL
- Ratio AUC [19]: 0.06
- Tmax [14]: 2 h
- Cmax [15]: 1380 ng/mL
- Tmax [16]: 1 h
- Ratio AUC [20]: 1.51
- Tmax [17, 24]: 1 h
- AUC [18]: 1310 ng·h/mL

Compound: C[C@H](Cn1cnc2c(N)ncnc21)OCP(=O)(O)O [TENOFOVIR ANHYDROUS]
- selectivity ratio [1]: 22
- IC50 [21]: 2.06 µM
- CC50 (HEK-293T [22]): > 100 µM
- IC50 (Cytochrome P450 2D6): > 50 µM
- IC50 (Cytochrome P450 3A4): 45.8 µM
- CC50 (HEK-293T [2]): 35.4 µM
- IC50 [3]: 1.6 µM
- selectivity ratio [23]: > 49

Compound: C[C@H](Cn1cnc2c(N)ncnc21)OCP(=O)(O)OCCCCCCCCCCCCCCCCC#C[Si](C)(C)C.N
- selectivity ratio [1]: 792
- CC50 (HEK-293T [2]): 68.1 µM
- IC50 [3]: 0.086 µM
- t1/2 [4]: > 2 h

Compound: CCCCCCCCCCCCCCCCSCCCOP(=O)(O)CO[C@H](C)Cn1cnc2c(N)ncnc21.N
- selectivity ratio [1]: 4980
- CC50 (HEK-293T [2]): 49.8 µM
- IC50 [3]: 0.01 µM
- t1/2 [4]: 0.7 h

Compound: C[C@H](Cn1cnc2c(N)ncnc21)OCP(=O)(O)OCCCCCCCCCCCCCCCCCC#CC(F)(F)F.N
- selectivity ratio [1]: 423
- IC50 (Cytochrome P450 2D6): > 20 µM
- IC50 (Cytochrome P450 3A4): > 20 µM
- CC50 (HEK-293T [2]): 78.7 µM
- t1/2 [4]: > 2 h

Compound: C#CCCCCCCCCCCCCCCCCCCOP(=O)(O)CO[C@H](C)Cn1cnc2c(N)ncnc21.N
- selectivity ratio [1]: 84
- IC50 (Cytochrome P450 3A4): > 50 µM
- CC50 (HEK-293T [2]): 99.5 µM
- IC50 [3]: 1.18 µM
- t1/2 [4]: > 2 h

Compound: C#CCCCCCCCCCCCCCCCCOP(=O)(O)CO[C@H](C)Cn1cnc2c(N)ncnc21.N
- selectivity ratio [1]: > 49
- CC50 (HEK-293T [2]): > 100 µM
- IC50 [3]: 2.03 µM
- t1/2 [4]: > 2 h

Compound: C[C@H](Cn1cnc2c(N)ncnc21)OCP(=O)(O)OCCCCCCCCCCCCCCCCCCCC(F)(F)F.N
- selectivity ratio [1]: 603
- IC50 (Cytochrome P450 2D6): > 20 µM
- IC50 (Cytochrome P450 3A4): > 20 µM
- CC50 (HEK-293T [2]): 72.4 µM
- IC50 [3]: 0.12 µM
- t1/2 [4]: > 2 h

Compound: CCCCCCCCCCCCCCCOP(=O)(O)CO[C@H](C)Cn1cnc2c(N)ncnc21.N
- selectivity ratio [1]: > 49
- CC50 (HEK-293T [2]): > 100 µM
- IC50 [3]: 2.06 µM
- t1/2 [4]: 0.217 h

Compound: CCCCCCCCCCCCCCCCCCOP(=O)(O)CO[C@H](C)Cn1cnc2c(N)ncnc21.N
- selectivity ratio [1]: 895
- CC50 (HEK-293T [2]): 84.1 µM
- IC50 [3]: 0.094 µM
- t1/2 [4]: 0.217 h

Compound: C[C@H](Cn1cnc2c(N)ncnc21)OCP(=O)(O)OCCCOCCCCCCCCCCCCCCCC(F)(F)F.N
- AUC [5]: 22600 ng·h/mL
- selectivity ratio [1]: > 2040
- IC50 (Cytochrome P450 2D6): > 20 µM
- IC50 (Cytochrome P450 3A4): > 20 µM
- CC50 (HEK-293T [2]): > 100 µM
- IC50 [3]: 0.049 µM
- fraction unbound at 24 h [8]: < 0.001
- Tmax [9]: 24 h
- Cmax [10]: 22.1 ng/mL
- t1/2 [4]: > 2 h
- AUC [11]: 337 ng·h/mL
- Ratio AUC [19]: 4.81
- Tmax [14]: 2 h
- Cmax [15]: 1120 ng/mL
- Tmax [16]: 8 h
- Ratio AUC [20]: 3.8
- Tmax ([17]; mouse, in vivo, po, 10 mg/kg, 24 h): 2 h
